Values quoted from earlier work, collected in patent US20240260569A1, “DISINFECTANT LIQUID, PREPARATION METHOD THEREOF AND FILM LAYER” (Shanghai Anpas New Materials Science & Technology Co., Ltd., priority 2021, published 2024).
Like-named read-outs stand apart in the source and are kept apart here.

Experiments:
[1] = relative to hypochlorite ions
[2] = aqueous solution

Compound: OCl [hypochlorous acid]
- disinfection and sterilization ability versus hypochlorite ions [1]: 80 to 100 times

Compound: OCl [sodium hypochlorite]
- pH of a 10% solution: around 12
- active chlorine loss ([2]; pH 9.4, after 14 days at 55° C.): 63%
- active chlorine loss ([2]; pH=8.7, after 14 days at 55° C.): 94%

Compound: O=c1nc([O-])n(Cl)c(=O)n1Cl.[Na+] [Sodium dichloroisocyanurate]
- active chlorine loss ([2]; within a week): about 50%
